Results: BindingDB's records for doi:10.1002/cmdc.200500017 (2006)

The compounds below were run against T1, Fatty-acid amide hydrolase 1 [30-579] (Rattus norvegicus, UniProt P97612) (assay: FAAH Inhibition Assay).
T1 construct: 30-579
T1 sequence (P97612 whole entry): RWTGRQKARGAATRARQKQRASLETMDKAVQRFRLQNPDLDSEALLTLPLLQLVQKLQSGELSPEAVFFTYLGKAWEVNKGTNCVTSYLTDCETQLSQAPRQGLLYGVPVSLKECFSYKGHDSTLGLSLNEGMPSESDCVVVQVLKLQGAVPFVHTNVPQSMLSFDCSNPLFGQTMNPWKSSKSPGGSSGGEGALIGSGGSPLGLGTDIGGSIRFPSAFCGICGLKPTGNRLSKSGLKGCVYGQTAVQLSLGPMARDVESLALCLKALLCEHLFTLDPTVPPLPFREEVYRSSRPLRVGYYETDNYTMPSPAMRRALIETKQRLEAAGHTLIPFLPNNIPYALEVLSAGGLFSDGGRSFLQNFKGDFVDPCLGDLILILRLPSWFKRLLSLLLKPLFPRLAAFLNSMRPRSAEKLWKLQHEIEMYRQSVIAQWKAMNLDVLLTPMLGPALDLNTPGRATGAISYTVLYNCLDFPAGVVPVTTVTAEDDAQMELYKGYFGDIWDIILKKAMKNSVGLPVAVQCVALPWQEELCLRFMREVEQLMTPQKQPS
Protocol: Membrane fractions were prepared from Wistar rat brain homogenates, and FAAH activity were assayed by using [3H]anandamide (anandamide[ethanolamine-3H], 60 Cimmol-1, from American Radiolabeled Chemicals, St. Louis, USA) as a substrate.

SMILES | IC50 [nM]
O=C(NC1CCCCC1)Oc1ccc([N+](=O)[O-])c(-c2ccccc2)c1 [FAAH Inhibitor, 2c] | > 30000
O=C(NC1CCCCC1)Oc1cccc(Oc2cccc(-c3ccccc3)c2)c1 [FAAH Inhibitor, 2l] | 2740
Nc1ccc(-c2ccccc2)cc1OC(=O)NC1CCCCC1 [FAAH Inhibitor, 2b] | 4830
CN(C)c1ccc(OC(=O)NC2CCCCC2)cc1-c1ccccc1 [FAAH Inhibitor, 2i] | 1590
O=C(NC1CCCCC1)Oc1ccc2ccn(-c3ccccc3)c2c1 [FAAH Inhibitor, 2k] | 1030
Cc1ccc(OC(=O)NC2CCCCC2)cc1-c1ccccc1 [FAAH Inhibitor, 2f] | 176
O=C(NC1CCCCC1)Oc1ccc(CO)c(-c2ccccc2)c1 [FAAH Inhibitor, 2h] | 46
O=C(NC(=O)c1ccc(OC(=O)NC2CCCCC2)cc1-c1ccccc1)NC1CCCCC1 [FAAH Inhibitor, 2j] | 2740
O=C(NC1CCCCC1)Oc1ccc(O)c(-c2ccccc2)c1 [FAAH Inhibitor, 2g] | 45
O=C(NC1CCCCC1)Oc1cc(-c2ccccc2)ccc1[N+](=O)[O-] [FAAH Inhibitor, 2a] | > 30000
Nc1ccc(OC(=O)NC2CCCCC2)cc1-c1ccccc1 [FAAH Inhibitor, 2d] | 52
NC(=O)c1ccc(OC(=O)NC2CCCCC2)cc1-c1ccccc1 [FAAH Inhibitor, 2e] | 252
